Values quoted from earlier work, collected in patent publication US7132450B2, “Hepatic disorder suppressant” (Kagome Co., Ltd., priority 2000, dated 2006).

Key:
[1] = reported in literature
NO and O2^− generation = settings: reported in literature

| SMILES | growth suppressing effect [1] | inhibitory effect on NO and O2^− generation (NO and O2^− generation) |
| --- | --- | --- |
| CCCCC/C=C\C/C=C\CCCCCCCC(=O)CC(O)COC(C)=O (stereo not drawn) [Compound 5, persin] | various growth suppressing effect | inhibitory effect on NO and O2^− generation |
| CCCCC/C=C\C/C=C\CCCCC/C=C/C(=O)CC(O)COC(C)=O (stereo not drawn) [Compound 4] |  | has inhibitory effect on NO and O2^− generation |
